Values after ≈ are worked out from the molar mass of the structure shown. Where two headings read alike, the source gives them in different places.
Tests used:
[1] = Human Plasma Protein Binding (Test B); assay type: in vitro ADME; conditions: fraction unbound (fu)
Outline: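 Human plasma protein binding run per the published Wernevik et al. (2020) integrated DMPK panel protocol. Values are fraction unbound (fu, % free); repeat runs averaged arithmetically.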

[2] = Human Liver Microsomal Stability (Test C); assay type: in vitro ADME; conditions: human, liver microsomes
Outline: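 Human liver microsome incubation per the Wernevik et al. integrated DMPK panel protocol. Intrinsic clearance reported as CLint in μl/min/mg protein, averaged arithmetically over repeat runs.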

[3] = Human Hepatocyte Stability (Test D); assay type: in vitro ADME; conditions: human, cryopreserved pooled human hepatocytes (LiverPool 10-Donor), geometric mean if run multiple times
Outline: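 Pooled 10-donor cryopreserved human hepatocytes (≥80% viable) in L-15 medium at 0.25×10^6 cells per 0.25 mL well. Compound added from 100 μM acetonitrile solution; incubated at 37 °C with shaking, acetonitrile-quenched, LC-MS analysed. Clint (μL/min/10^6 cells) from ln % parent vs time slope; geometric mean of repeat runs.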

[4] = Rat Hepatocyte Stability (Test E); assay type: in vitro ADME; conditions: rat, hepatocytes, geometric mean if run multiple times
Outline: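 Run per the published AstraZeneca-type rat hepatocyte stability protocol (Wernevik et al. panel). Values are mean intrinsic clearance, Clint in μl/min/10^6 cells; geometric mean used for repeated runs.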

Solubility (Test F) = assay type: physicochemical; conditions: arithmetic mean if run multiple times
Protocol: The assay was conducted according to the Solubility Assay described in pages 164-167 of Wernevik, J. et al., “A Fully Integrated Assay Panel for Early Drug Metabolism and Pharmacokinetics Profiling”, Assay and Drug Development Technologies, 2020, 18(4), 157-179. Data are reported in Table 36 as solubility ([…]. Where the assay was run multiple times for the same compound, the arithmetic mean is reported.

human RXFP1 = target: T1, human RXFP1 (Homo sapiens, UniProt Q9HBX9); experiment: RXFP1 Hu cAMP (Test A); assay type: cell-based; design: expressed in transfected cells; host or cells: Jump-In T-REx CHO-K1 cells (ThermoFisher), induced with 10 ng/ml doxycycline for 24 h
T1 sequence (Q9HBX9 1-757): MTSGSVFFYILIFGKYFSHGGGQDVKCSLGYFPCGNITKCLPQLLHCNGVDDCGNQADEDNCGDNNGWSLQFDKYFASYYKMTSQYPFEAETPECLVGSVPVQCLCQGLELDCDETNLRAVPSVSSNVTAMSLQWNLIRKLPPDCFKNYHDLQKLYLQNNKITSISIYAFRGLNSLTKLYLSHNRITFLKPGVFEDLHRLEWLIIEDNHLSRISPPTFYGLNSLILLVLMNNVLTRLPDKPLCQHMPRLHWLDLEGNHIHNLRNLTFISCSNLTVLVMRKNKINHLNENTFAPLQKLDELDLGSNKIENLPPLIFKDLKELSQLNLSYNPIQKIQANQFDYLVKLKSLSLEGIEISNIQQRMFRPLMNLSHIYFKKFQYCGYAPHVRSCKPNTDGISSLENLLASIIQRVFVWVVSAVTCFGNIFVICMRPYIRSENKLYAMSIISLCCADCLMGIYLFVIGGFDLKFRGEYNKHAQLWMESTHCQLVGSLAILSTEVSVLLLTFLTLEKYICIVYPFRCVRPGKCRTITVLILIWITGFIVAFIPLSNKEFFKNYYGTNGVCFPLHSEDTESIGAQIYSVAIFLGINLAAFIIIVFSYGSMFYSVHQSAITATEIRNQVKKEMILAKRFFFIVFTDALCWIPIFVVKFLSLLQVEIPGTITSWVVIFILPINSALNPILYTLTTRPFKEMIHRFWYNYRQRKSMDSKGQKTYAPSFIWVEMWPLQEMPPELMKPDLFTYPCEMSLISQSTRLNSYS
Outline: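 Read-out is HTRF signal, inversely proportional to cAMP, converted to cAMP amount by standard curve. Stimulation occurred in inducible CHO-K1 cells expressing the human receptor with phosphodiesterases blocked by 0.5 mM IBMX.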

[5] = RXFP1 Hu cAMP, read-out: Test A EC50

Row | Structure (SMILES) | Test B Human Plasma Protein Binding (% free) [1] [% free] | microsomal CLint [2] [µL/min/mg] | hepatocyte CLint at 1 µM [3] [µL/min/1e6 cells] | hepatocyte CLint [4] [µL/min/1e6 cells] | solubility (Solubility (Test F)) [µM] | Test A Sinf (human RXFP1; RXFP1 Hu cAMP) [%] | EC50 (human RXFP1; [5]) [nM] | EC50 (human RXFP1; Test A EC50, RXFP1 Hu cAMP) [nM]
1 | COc1cc(F)c(O[C@H]2CC[C@@](C)(C(=O)O)CC2)cc1C(=O)Nc1ccccc1C(=O)NCC(C)(C)C [Example 142, (1s,4s)-4-(2-Fluoro-4-methoxy-5-((2-(neopentylcarbamoyl)phenyl)-carbamoyl)phenoxy)-1-methylcyclohexane-1-carboxylic acid] | 1.2 | < 3 | 3.3 | 9.8 | 6.5 (≈ 3.34 µg/mL) | 129 | 320 | –
2 | COc1cc(F)c(-c2cccc(CC(=O)O)c2)cc1C(=O)N[C@H]1[C@@H](C(=O)Nc2cccc(S(=O)(=O)C(F)(F)F)c2)[C@@H]2C=C[C@H]1C2 (racemic) [Example 281] | 0.31 | 5.5 | 5 | 9.1 | 11 (≈ 7.11 µg/mL) | 170 | 870 | –
3 | COc1cc(F)c(O[C@H]2CC[C@@](C)(C(=O)O)CC2)cc1C(=O)N[C@H]1[C@@H](C(=O)NCC2(C)CCC2)[C@@H]2C=C[C@H]1C2 [Example 417] | 4.8 | 24 | 5.1 | 17 | 900 (≈ 488 µg/mL) | 102 | 9.8 | –
4 | COc1cc(F)c(-c2ccc(CCC(=O)O)nn2)cc1C(=O)N[C@@H]1[C@H]2CC[C@H](C2)[C@@H]1C(=O)Nc1cccc(S(=O)(=O)C(F)(F)F)c1 [Example 245] | 5 | 45 | 13 | 15 | 980 (≈ 651 µg/mL) | 104 | 640 | –
5 | CCC(CC)CNC(=O)[C@H]1[C@@H]2CC[C@@H](C2)[C@H]1NC(=O)c1cc(OC2CCC(C)(C(=O)O)CC2)c(F)cc1OC (stereo partly drawn) [Example 43] | 1.3 | 33 | 5 | 25 | 770 (≈ 421 µg/mL) | 106 | 83 | –
6 | COc1cc(F)c(O[C@H]2C[C@@H](C(=O)O)C2)cc1C(=O)NC1[C@H]2CC[C@H](C2)[C@@H]1C(=O)Nc1cccc(S(=O)(=O)C(F)(F)F)c1 (stereo partly drawn) [Example 444] | 2.5 | 18 | 15 | 22 | > 1000 | 117 | 120 | –
7 | COC[C@]1(C(=O)O)CC[C@@H](Oc2cc(C(=O)N[C@@H]3[C@H]4CC[C@H](C4)[C@@H]3C(=O)Nc3cccc(S(=O)(=O)C(F)(F)F)c3)c(OC)cc2F)CC1 [Example 482] | 1.5 | 56 | 18 | 78 | > 1000 | 112 | 11 | –
8 | COc1cc(F)c(O[C@H]2CC[C@@](C)(C(=O)O)CC2)cc1C(=O)N[C@@H]1CCC[C@]1(F)C(=O)Nc1cccc(S(=O)(=O)C(F)(F)F)c1 [Example 355] | 2.1 | 32 | 8 | 19 | 430 (≈ 285 µg/mL) | 114 | 37 | –
9 | COc1ccc(O[C@H]2CC[C@@](C)(C(=O)O)CC2)cc1C(=O)N[C@@H]1[C@H]2CC[C@H](C2)[C@@H]1C(=O)NCC1(C)CCC1 [Example 381] | 3.8 | 36 | 6.1 | 21 | 1000 (≈ 527 µg/mL) | – | – | 110
10 | COc1cc(C#N)c(O[C@H]2CC[C@@](C)(C(=O)O)CC2)cc1C(=O)NC1C2CCC(O2)C1C(=O)NCC1(C)CCC1 (single isomer, unassigned) [Example 534, (1R,4s)-4-(2-Cyano-4-methoxy-5-(((1S*,2S*,3R*,4R*)-3-(((1-methylcyclobutyl)methyl)carbamoyl)-7-oxabicyclo[2.2.1]heptan-2-yl)carbamoyl)phenoxy)-1-methylcyclohexane-1-carboxylic acid] | 7.1 | 16 | 43 | 19 | > 1000 | 106 | 99 | –
11 | COc1cc(F)c(O[C@H]2CC[C@@](C)(C(=O)O)CC2)cc1C(=O)N[C@@H]1[C@H]2CC[C@H](C2)[C@@H]1C(=O)NCC(C)(C)C#N [Example 47] | 21 | < 3 | < 1 | 17 | > 1000 | 111 | 200 | –
12 | COc1cc(C#N)c(O[C@H]2CC[C@@](C)(C(=O)O)CC2)cc1C(=O)NC1C2C=CC(CC2)C1C(=O)NCC1(C)CCC1 (single isomer, unassigned) [Example 540, (1R,4s)-4-(2-Cyano-4-methoxy-5-(((1R*,2S*,3R*,4S*)-3-(((1-methylcyclobutyl)methyl)carbamoyl)bicyclo[2.2.2]oct-5-en-2-yl)carbamoyl)phenoxy)-1-methylcyclohexane-1-carboxylic acid] | 6 | 20 | 8.5 | 19 | 1000 (≈ 564 µg/mL) | 104 | 20 | –
13 | CCC(CC)[C@H](C)NC(=O)[C@H]1[C@@H]2CC[C@@H](C2)[C@H]1NC(=O)c1cc(O[C@H]2CC[C@@](C)(C(=O)O)CC2)c(F)cc1OC (single isomer, unassigned) [Example 144, (1S,4s)-4-(5-(((1S,2R,3S,4R)-3-(((R*)-3-Ethylpentan-2-yl)carbamoyl)bicyclo-[2.2.1]heptan-2-yl)carbamoyl)-2-fluoro-4-methoxyphenoxy)-1-methylcyclohexane-1-carboxylic acid] | 3 | 240 | 17 | 29 | 29 (≈ 16.3 µg/mL) | 106 | 93 | –

From patent publication US11667602B2, “Compounds and their use” (AstraZeneca AB, priority 2020, dated 2023)
